Patent US7045531B1, “Composition comprising a metal chelator and a method of treating amyloidosis by administering the metal chelator” (The General Hospital Corporation, priority 1997, dated 2006)
Where two headings read alike, the source gives them in different places. Each block holds one compound with its values, some of them ahead of it.

Tests used:
AD = settings: twice daily deep intramuscular injections; cited from earlier work
Aβ1-42 [1] = target: T1, Aβ1-42 (Homo sapiens, UniProt P05067); experiment: Effect of metal chelators on H2O2 production from Aβ1-42; assay type: biochemical; settings: chelator 200 μM; 1 μM Fe^3+
T1 sequence (P05067 672-713 limits assumed): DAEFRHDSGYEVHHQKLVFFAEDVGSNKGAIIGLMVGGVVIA

Aβ1-42 [2] = target: T1, Aβ1-42; experiment: Modulation of SDS-resistant polymerization of Aβ1-42; assay type: biochemical; settings: TCEP 100 μM; with and without Cu^2+; over 3 days
Protocol: Solution concentrations of metal ion and H2O2 were 30 μM and 100 μM, respectively. […] Argon was continuously bubbled through the buffer for 2 h (at 20° C.) before the remainder of the incubation components were added.
It is possible that the decreased polymerization may be due to chelation of Cu^2+ by BC, however given the low binding affinity of BC for Cu^2+ compared with Aβ, it seems likely that the chelation of […] by BC prevents it from inducing SDS-resistant Aβ polymerization. Therefore, Aβ may undergo a hydroxyl radical modification that promotes its assembly into SDS-resistant polymers.

Aβ1-40 = Aβ1-40 (Homo sapiens, UniProt P05067); settings: pH 7.4; EDTA chelation
Sequence of Aβ1-40 (P05067 672-711 limits assumed): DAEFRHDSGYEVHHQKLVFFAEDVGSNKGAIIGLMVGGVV

[3] = tested on: Cu^2+-induced Aβ1-40 or Aβ1-42 SDS-resistant polymers; experiment: Dissolution of in vitro generated SDS-resistant Aβ polymers; assay type: biochemical, human; settings: polymers generated at pH 7.4
[4] = Aβ metal-capture ELISA, competition analysis of binding to Cu^2+; settings: pH 7.4; read-out: Kd, high affinity saturable Cu^2+ binding site
Protocol: Aβ1-40 (1.5 ng/well) was incubated (37° C., 2 hr) in the wells of Cu^2+ coated microtiter plates (Xenopore, Hawthorne, N.J.) with increasing concentrations of Cu^2+ (1–100 nM) as described by Moir et al., Journal of Biological Chemistry (submitted). Remaining ligand binding sites on well surfaces were blocked with 2% gelatin in tris-buffered saline (TBS) (3 hr at 37° C.) prior to overnight incubation at room temperature with the anti-Aβ mAb 6E10 (Senetek, Maryland Heights, Mich.). Anti-mouse IgG coupled to horseradish peroxidase was then added to each well and incubated for 3 hr at 37° C. Bound antibodies were detected by a 30 minute incubation with stable peroxidase substrate buffer/3,3′,5,5′-Tetramethyl benzidine (SPSB/TMB) buffer, followed by the addition of 2 M sulfuric acid and measurement of the increase in absorbance at 450 nm.
All assays were performed in triplicate and are means±SD, n=3. […] The affinity of Aβ for Cu^2+ is higher than that for Zn^2+ (Bush, A. I., et al., J. Biol. Chem. 269: 12152 (1994)). […] This is supported by the fact that there is both a pH sensitive and insensitive interaction with different metal ions.

[5] = Metal reduction assay, Cu^2+ (BC indicator); assay type: biochemical; settings: Cu^2+ 10 μM; PBS pH 7.4; 1 hr, 37° C.
Protocol: (§1) Polypeptides (10 μM) or Vitamin C (100 μM), metal ions (10 μM, Fe(NO3)3 or Cu(NO3)2), and reduced metal ion indicators, bathophenanthrolinedisulfonic acid (BP, for Fe^2+, Sigma, 200 μM) or bathocuproinedisulfonic acid (BC, for Cu^+, Sigma, […]), were coincubated in phosphate buffered saline (PBS), pH 7.4, for 1 hr at 37° C. The metal ion solutions were prepared by direct dilution in the buffer from their aqueous stocks purchased from National Institute of Standards and Technology (NIST). Absorbances were then measured at 536 nm (Fe^2+-BP complex) and 483 nm (Cu^+-BC complex), respectively, using a 96-well plate reader (SPECTRAmax 250, Molecular Devices, Calif.). In control samples, both metal ion and indicator were present to determine the background buffer signal. As a further control, both metal ion and peptide were present in the absence of indicator to estimate the contribution of light scattering due to turbidity to the absorbance reading at these wavelengths. The net absorbances (ΔA) at 536 nm or 483 nm were obtained by deducting the absorbances from these controls from the absorbances generated by the peptide and metal in the presence of the respective indicator.

[6] = cited from earlier work; for Kd: physiological pH
[7] = Metal reduction assay, Fe^3+ (BP indicator); assay type: biochemical; settings: Fe^3+ 10 μM; PBS pH 7.4; 1 hr, 37° C.
Protocol: as §1, with “The metal reduction assay was performed using a 96-well microtiter plate (Costar) based upon a modification of established protocols (Landers, J. W., et al., Amer. Clin. Path. 29:590 (1958); Landers. J. W. et al., Clinica Chimica Acta 3:329 (1958)). Polypeptides” for “Polypeptides”
The concentrations of reduced metal ions (Fe^2+ or Cu^+) were quantified based on the formula: Fe^2+ or Cu^+ (˜M)=A*10^6/(L*M), where L is the measured equivalent vertical pathlength for a well of 300 μL volume as described in the instrument's specifications manual (0.856 cm for Fe^2+; 1.049 cm for Cu^+); M is the known molecular absorbance (M^−1 cm^−1) which is 7124 (for Fe^2+-BP complex) or 2762 (for Cu^+-BC complex).

[8] = SDS-resistant polymerization of Aβ peptides with Cu^2+ (Western blot, image analysis); assay type: biochemical; settings: after 5 d; for conversion of the monomer to dimer / conversion of the monomer to trimer: Cu^2+ 30 μM
Protocol: Following incubation (37° C.), aliquots of each reaction (2 ng peptide) were collected at 0 d, 1 d, 3 d and 5 d and western blotted using anti-Aβ monoclonal antibody 8E10 (FIG. 9). Migration of the molecular size markers are indicated (kDa). […] It should be noted that other means of visualizing and/or determining the presence or absence of polymerization other than western blot analysis may be used. Such other means include but are not limited to density sedimentation by centrifugation of the samples.
As above, electronic images captured using the Fluoro-S Image Analysis System (Bio-Rad, Hercules, Calif.) were analyzed using Multi-Analyst Software (Bio-Rad, Hercules, Calif.).
(0–30 μM) at pH 7.4 and 6.6 and the samples analyzed by Western blot and the signal quantitated using the Fluoro-S Image Analysis System (Bio-Rad, Hercules, Calif.) as previously described.

[9] = TBARS assay of OH. production by peptides; assay type: biochemical; settings: 1 μM Fe^3+ or Cu^2+
Protocol: The Thiobarbituric Acid-Reactive Substance (TBARS) assay for incubation mixtures with Fe^3+ or Cu^2+ was performed in a 96-well microtiter format modified from established protocols (Gutteridge et al. Biochim. Biophys. Acta 759: 38–41 (1983)). Aβ peptide species (10 μM) or Vitamin C (100 μM), were incubated with Fe^3+ or Cu^2+ (1 μM) and deoxyribose (7.5 mM, Sigma) in PBS, pH 7.4. Following incubation (37° C., 1 hour), glacial (17 M) acetic acid and 2-thiobarburic acid (1%, w/v in 0.05 M NaOH, Sigma) were added and heated (100° C., 10 min). The final mixtures were placed on ice for 1–3 minutes before absorbances at 532 nm were measured. The net absorbance change for each sample were obtained by deducting the absorbance from a control sample consisting of identical chemical components except for the Vitamin C or Aβ peptides.

[10] = Cu^+ generation / metal reduction (Example 2); assay type: biochemical; settings: 10 μM in PBS; Cu^2+ 10 μM; 30 minutes, 37° C.
Protocol: This method is modified from a protocol assaying serum copper and iron (Landers, J. W., et al., Amer. J. Clin. Path. 29:590 (1958)). It is based on the fact that there are optimal visible absorption wavelengths of 483 nm and 535 nm for Cu^+ complexed with bathocuproinedisulfonic (BC) anion and Fe^2+ coordinated by bathophenanthrolinedisulfonic (BP) anion, respectively.
Aβ (10 μM in PBS, pH 7.4 or 6.8, as shown) was incubated for 30 minutes (37° C.) in the presence of Cu^2+ 10 μM±Zn^2+ 10 μM). Cu^+ levels (n=3, ±SD) were assayed against a standard curve.

effect on H2O2 formation by Aβ1-42 (Aβ1-42 [1]): no effect
Compound: CC(=O)N(O)CCCCCNC(=O)CCC(=O)N(O)CCCCCNC(=O)CCC(=O)N(O)CCCCCN [DFO, Desferrioxamine]
side effects (AD): anaemia

Compound: Cl.O=C(O)CCP(CCC(=O)O)CCC(=O)O [TCEP, Tris(2-Carboxyethyl)-Phosphine Hydrochloride]
effect on level of polymerization of Aβ1-42 (Aβ1-42 [2]): significantly reduced the level of polymerization

reversibility of Cu^2+-induced Aβ1-40 aggregation (Aβ1-40): reversible
Compound: O=C(O)CN(CCN(CC(=O)O)CC(=O)O)CC(=O)O [EDTA, ethylenediaminetetra acetic acid]
effect on amount of Aβ1-40 or Aβ1-42 SDS-resistant polymers [3]: less effective

Compound: Aβ1-40: synthetic human Aβ1-40 peptide
Kd [4]: 0.9 nM
available Cu^2+ reduced [5]: 60%
Kd ([6]; read-out: KD, high affinity zinc binding, 1:1 (Zn^2+:Aβ)): 107 nM
Kd ([6]; read-out: KD, low affinity zinc binding, 2:1 stoichiometry): 5200 nM
available Fe^3+ reduced [7]: 12%
conversion of the monomer to dimer ([8]; pH 6.6): 29%
conversion of the monomer to trimer ([8]; pH 6.6): 2%
conversion of the monomer to dimer ([8]; pH 7.4): 42%
conversion of the monomer to trimer ([8]; pH 7.4): 9%
peptide converted to the SDS-resistant dimer ([8]; no metal, pH 6.6, 7.4 or 9.0): Less than 4%

Compound: rat Aβ1-40: Rat/mouse Aβ1-40 with substitutions R5G, Y10F, H13R (DAEFGHDSGFEVRHQKLVFFAEDVGSNKGAIIGLMVGGVV; Amyloid-beta protein 40; UniProt P12023 672-711, looked up, fragment)
available Cu^2+ reduced [5]: reduced no Cu^2+
KA, zinc, single binding site [6]: 3.8 µM
available Fe^3+ reduced [7]: did not significantly facilitate the reduction of Fe^3+
OH. generation [9]: did not generate OH.
Cu^2+ reduction / redox reactivity [10]: does not manifest the redox reactivity
